Test results as given in patent publication US9556417B2, “Reprogramming of cells to a new fate” (The Scripps Research Institute, priority 2010, dated 2017).

Assays:
[1] = tested on: spontaneously contracting colonies (transdifferentiated cardiomyocytes); experiment: Calcium imaging and testing of chronotropic agents; assay type: cell-based, mouse; conditions: 1 μM isoproterenol or 10 μM carbachol; 10 minutes after addition
Method: Cells were loaded with Fluo-4-AM (5 μM, 30 min, 37° C.) (F14201, Invitrogen), and imaged with an Olympus Fluoview 1000 inverted confocal microscope with a 40× oil immersion lens (numerical aperture 1.3). Line scan imaging mode was used to measure spontaneous Ca2^+ transients at 37° C. Image processing and data analysis were performed as previously described (Ouyang, K. et al., J Biol Chem 280, 15898-902 (2005)). For drug testing, all measurements were repeated 10 minutes after the addition of isoproterenol (1 μM; Sigma) or Carbachol (10 μM; Sigma-Aldrich).

[2] = tested on: mouse embryonic fibroblasts (MEFs); experiment: Direct cardiac reprogramming of fibroblasts, contracting patch/colony counts; assay type: cell-based; conditions: standard reprogramming media with LIF for the first nine days
Excerpt: Having successfully initiated the early cardiogenic program in MEFs, we next sought to induce robust activation of mid-stage cardiac gene expression and to ultimately generate spontaneously contracting patches of cardiac cells, a hallmark of terminal differentiation that is easily observed and quantified. To this end, we treated three-factor transduced MEFs with chemically defined media (CDM) as well as cytokines and small molecules that might enhance cardiogenesis by regulating TGFβ, bone morphogenetic protein (BMP), Hedgehog, Wnt, or Notch pathway activity. Treatments were done individually and in combination, and at different times during the reprogramming process. Despite the general unsuitability of the resulting protocol for iPSC generation, we also explored whether small-molecule inhibition of JAK-STAT (Janus kinase-signal transducer and activator of transcription), PI3K (phosphatidylinositol 3-kinase), or Wnt signalling during the early stages of the protocol might boost the effectiveness of cardiomyogenesis by preventing even a small number of iPSC intermediates from forming. Finally, we experimented with a more gradual transition between different media by lowering FBS concentration step-wise in increments of 1-4% over 3-6 days (immediately prior to switching to CDM). […] During this initial nine-day period, the small-molecule JAK inhibitor JD is continuously kept in the media at a concentration of 0.5 μM. From day nine onwards, the cells are cultured in CDM, with the cardioinductive growth factor BMP4 (Snyder, A. et al., J Cell Biochem 93, 224-32 (2004)) being added at 20 ng/ml for the first five days (FIG. 1b).
All MEFs (129S2/SvPasCrlf) were derived according to WiCell protocols (https://www.wicell.org/index.php?option=com_docman&task=doc_download&gid=687). TTFs were a kind gift of Dr. Hans Schöler. Secondary MEFs were derived as previously described (Wernig, M. et al., Nat Biotechnol 26, 916-24 (2008)). All results were initially obtained and confirmed with the Nebulette-LacZ MEFs; to ensure reproducibility and minimize inter-experimental variation, reported results almost exclusively derive from experiments utilizing secondary dox-inducible MEFs using the optimum induction period. MEFs were initially passaged on gelatin-coated (0.1% for 2 hours at 37° C.) tissue culture dishes in DMEM supplemented with 10% FBS, 2 mM Glutamax and 0.1 mM NEAA (all components from Invitrogen, Carlsbad, Calif.). Prior to viral transduction, cells were seeded onto Matrigel (BD Biosciences, Franklin Lakes, N.J.) or Geltrex (Invitrogen)-coated plates (1:40, overnight at 4° C.) at 3.5×10^4 cells per well of a six well plate (7×10^4 cells for TTFs) in the same media. […]

secondary MEFs = experiment: Neural transdifferentiation of secondary MEFs with exposure to LIF-containing medium; assay type: cell-based, mouse
Method: NGFP1 Dox-inducible iPS cells (Hanna J. et al., Nature (2009); Hanna, J. et al., Cell 133(2):250-264 (2008)) (Stemgent) were injected into C57BL/6 blastocysts and implanted into surrogate mice (CD1, Harlan). Chimeric embryos were isolated at E12.5-13.5. Heads, developing organs and spinal cords were carefully removed from the embryos and MEFs were prepared and selected as previously described (Hanna J. et al., Nature (2009); Wernig, M. et al., Nat Biotechnol 26(8):916-924 (2008); Hanna, J. et al., Cell 133(2):250-264 (2008)). For reprogramming, secondary MEFs (p3-4) were plated on Geltrex-coated culture dishes at 1.5-2×10^4 cells/cm^2 in MEF medium (Dullbecco's modified Eagle's medium supplemented with 10% fetal bovine serum, 0.1 mM non-essential amino acids, and 2 mM Glutamax). Doxycycline (Sigma-Aldrich, 2-8 μg/ml) treatment was initiated the next morning (Day 0) and continued until the designated day(s). Cells were cultured in MEF medium for an additional day and changed to reprogramming initiation medium (RepM-Ini; knock-out DMEM supplemented with 10% knock-out serum replacer, 5% FBS, 0.1 mM NEAA, 2 mM Glutamax, and 0.055 mM β-mercaptoethanol) for three days. For neural stem/progenitor reprogramming, the medium was changed into neural reprogramming medium (RepM-Neural; Advanced DMEM/F12 and Neurobasal medium were mixed by 1:1 and supplemented with 0.05% bovine serum albumin, 1×N2, 1×B27, 2 mM Glutamax, 0.11 mM β-mercaptoethanol, 20 ng/ml FGF2, 2 ng/ml FGF4, and 20 ng/ml EGF). RepM-Pluri is the same as RepM-Ini, with the addition of 1000 units/ml LIF (Millipore).
Total RNA was extracted from samples at the designated time points using the RNeasy Plus Mini Kit with QiaShredder (Qiagen). One microgram of total RNA per sample was reverse-transcribed using the iScript cDNA synthesis kit (Bio-Rad) and the cDNA was diluted with 130 ul of water. 1/50 of the diluted cDNA was used for quantitative PCR with iQ SYBR Green Supermix on the CFX96 system (Bio-Rad). All qPCR reactions were done in duplicate or triplicate, and the expression data were normalized to both Gapdh and β-actin expression using CFX manager software (Bio-Rad). All primer sequences are listed in previous publications (Hanna J. et al., Nature (2009); Wernig, M. et al., Nat Biotechnol 26(8):916-924 (2008); Greber, B. et al., Cell Stem Cell 6(3):215-226 (2010)).
Samples were washed once with D-PBS (Invitrogen, without Ca^2+ and Mg^2+) and were fixed with a 4% pure-formaldehyde solution (Electron Microscopy Sciences) with 0.15% picric acid (Sigma-Aldrich) in D-PBS for 20 min, followed by three washes with D-PBS. Blocking and permeabilization were done with a 3% BSA (Jackson ImmunoResearch) and 0.3% Triton X-100 (Sigma-Aldrich) solution in D-PBS for 1 hr at room temperature. […]

R1 ES cells [3] = experiment: Serum-free monolayer cardiac differentiation of ES cells, beating colonies; assay type: cell-based, mouse; conditions: early treatment window
Method: Having identified the first serum-free monolayer condition for cardiac differentiation of ES cells, we sought to test its efficacy as a platform to discover regulators of cardiomyogenesis. A collection of approximately 200 small molecules and growth factors reported to be influential in developmental processes were assembled. R1 ES cells were grown and plated for differentiation on Matrigel in 24-well plates using the media and growth factors described above. The screening collection was then added and removed from each well at specific time points in order to account for different developmental time windows. The collection was screened at days 0-2, 2-5, and 5-7.
Cells are plated at a density of 200,000 cells/well of a 6-well plate in 2.5 ml of ESGM. 6-well plates are coated overnight at 4° C. with 1 ml of Matrigel (BD Bioscience) diluted 50× from stock concentration. 24 hours after plating, or after sufficient colony size was achieved, cells are switched into chemically defined medium (CDM) and treated with 4 uM BIO (Calbiochem) and 20 ng/ml BMP-4 (R&D). CDM contains RPMI 1640, 0.5×N2, 1×B27 (without Vitamin A), 0.5× Glutamax, 0.55 mM beta-mercaptoethanol, 1× non-essential amino acids, 1× nucleosides. At Day 2, medium is changed, and again CDM containing 4 uM BIO with 20 ng/ml BMP-4 is added to the cells. At Day 5, cells are washed once with PBS and medium is changed to CDM containing 100 ng/ml Dkk-1 (R&D). At Day 7, medium is changed, and again CDM containing 100 ng/ml Dkk-1 is added to the cells. At Day 10, cells are trypsinized (0.05% trypsin) (Approximately 5 minutes at 37° C., or until cells begin to detach) and replated onto gelatin coated 6-well plates in CDM with no additional growth factors. By this time, the cells will have formed tight colonies that will be difficult to disrupt (Supplementary FIG. 2b). […] The trypsin is used primarily to detach the cells rather than to dissociate them to a single cell suspension. It is preferable for the colonies to remain intact. The trypsin is briefly quenched with MEF media, cells are centrifuged, and resuspended in CDM for plating. Medium is refreshed as needed to remove dead cells and debris (every 1 to 2 days).

R1 ES cells [4] = experiment: QRT-PCR of markers in differentiating ES cells; assay type: cell-based, mouse; conditions: treated day 0-2, harvested day 4.5
Method: To further analyze the mechanism of action of the cardiogenic effect seen with these molecules, QRT-PCR was carried out on cells treated from day 0-2 and harvested at day 4.5.
QRT-PCR was carried out to observe the induction of cardiomyogenesis at the transcript level. At day 5, when A83-01 treatment begins, the predominant state is that of a developed primitive streak type population that is yet to display robust expression of markers of cardiac precursors such as Nkx2.5, Isl-1, and c-kit.
Total RNA from each sample was prepared from 5×10^4 cells using RNeasy mini kit (Qiagen). Reverse transcription was carried out by using Reverse Transcription System (Promega) and PCR performed using PCR Super Mix (Invitrogen).

Row | Molecule | decay period (τ) of calcium transients [1] | frequency of spontaneous calcium transients [1] | decline in beating colony number [2] [fold] | onset of beating [2] | gene expression of Sox1, Pax6, Nanog, Rex1 (secondary MEFs; day 9) | number of PLZF-expressing colonies (secondary MEFs; day nine, as little as one day LIF exposure) | Sox17, T, and FGF5 expression (secondary MEFs; days 9, 11, and 13) | number of SSEA1-expressing cells (secondary MEFs; flow cytometry) | cardiac differentiation / percentage of beating colonies (R1 ES cells [3]) | expression of Brachyury T, Flk-1, GATA-4 and MESP1 (R1 ES cells [4])
1 | C[N+](C)(C)CCOC(N)=O [carbachol] | opposite effects | opposite effects | – | – | – | – | – | – | – | –
2 | LIF: leukaemia inhibitory factor, added to standard reprogramming medium | – | – | ~25 | four-day delay | down-regulation of Sox1 and Pax6 with concomitant up-regulation of Nanog and Rex1 | clearly decreased | increased | increases | – | –
3 | CC(C)NCC(O)c1ccc(O)c(O)c1 (stereo not drawn) [isoproterenol] | shortened | significantly increased | – | – | – | – | – | – | even more potent cardiac inducing effect than BayK 8644 | increased
